# How the values were obtained:
# [1] = target: T1, GNAT family acetyltransferase from Elizabethkingia anophelis (BAY10_3400) (Elizabethkingia anophelis, UniProt Z9UBX7MZA9); experiment: X-ray crystallography, […] A; assay type: binding; conditions: co-crystallised with 5 mM acetyl-CoA, 100 mM Tris/HCl pH 5.5, 2 M ammonium sulfate, 285 K; active site
# T1 construct: full length, non-cleavable N-terminal His6-tag (vector BG1861), expressed in E. coli Rosetta BL21(DE3)R3; all residues modelled except N-terminal Met; monomer and dimer in SEC, crystal from dimer peak
# [2] = target: GNAT family acetyltransferase from Elizabethkingia anophelis (Elizabethkingia anophelis); experiment: SEC; preparative HiLoad 26/60 Superdex 75 in 25 mM HEPES, 500 mM NaCl, 5% glycerol, 2 mM DTT, 0.025% azide pH 7.0; calibrated with conalbumin, ovalbumin and ribonuclease A; molecular weights from the elution volume
Compound,"X-ray crystallography, 1.85 A [1]",stoichiometry N [2]
CC(=O)SCCNC(=O)CCNC(=O)[C@H](O)C(C)(C)COP(=O)(O)OP(=O)(O)OC[C@H]1O[C@@H](n2cnc3c(N)ncnc32)[C@H](O)[C@@H]1OP(=O)(O)O [acetyl-CoA],Our structure contained a well-ordered acetyl-CoA molecule bound in the active site,
GNAT family acetyltransferase from Elizabethkingia anophelis (enzyme),,2

# From publication PMC7809356, “Structural characterization of a GNAT family acetyltransferase from Elizabethkingia anophelis bound to acetyl-CoA reveals a new dimeric interface” (Scientific Reports, 2021)
